Assay results taken from patent US10946074B2, “GLP-1 derivatives and uses thereof” (Novo Nordisk A/S, priority 2016, dated 2021).
Starred links: 1 amine or outer side, 2 acyl side, 3 side chain; linkers in the order of their positions; H or OH if unused. Residues, ends and D or L forms follow the SMILES beside them. Groups on a side chain read outwards from the residue. *: point of attachment. Undecanoyl(11-OPh(4-COOH)) = O=C(O)c1ccc(OCCCCCCCCCCC(=O)*)cc1; Decanoyl(10-O(3-COOH-Ph)) = O=C(O)c1cccc(OCCCCCCCCCC(=O)*)c1; γGlu = O=C(O)[C@H](CCC(=O)[*:2])N[*:1]; AEEA = NCCOCCOCC(=O)O

biological target: T1, human GLP-1 receptor (Homo sapiens, UniProt P43220); experiment: GLP-1 receptor binding, competitive binding assay with 125I-GLP-1 on isolated membranes (SPA); conditions: GLP-1 receptor binding High HSA IC50 (nM), high HSA (2.0% (w/v) final assay concentration)
T1 construct: expressed in transfected cells; host or cells: membranes of BHK cells (parent BHKTS13), clone FCW467-12A
T1 sequence (P43220 24-463): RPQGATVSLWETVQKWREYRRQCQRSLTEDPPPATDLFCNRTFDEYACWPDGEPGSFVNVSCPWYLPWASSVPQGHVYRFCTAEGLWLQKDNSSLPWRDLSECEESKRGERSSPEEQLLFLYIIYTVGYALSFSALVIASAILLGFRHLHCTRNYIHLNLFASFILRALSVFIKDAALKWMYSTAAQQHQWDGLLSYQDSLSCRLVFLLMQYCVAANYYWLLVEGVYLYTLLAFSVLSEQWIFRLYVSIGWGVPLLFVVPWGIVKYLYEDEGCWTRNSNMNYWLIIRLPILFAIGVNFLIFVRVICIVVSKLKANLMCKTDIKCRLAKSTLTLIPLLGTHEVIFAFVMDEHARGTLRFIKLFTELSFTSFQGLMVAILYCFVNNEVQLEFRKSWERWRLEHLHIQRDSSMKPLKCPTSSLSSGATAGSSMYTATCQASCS
Method: The receptor binding is reported as the concentration at which half of the labelled ligand is displaced from the receptor, the IC50 value.
Buffer 1 consisted of 20 mM Na-HEPES plus 10 mM EDTA and pH was adjusted to 7.4. Buffer 2 consisted of 20 mM Na-HEPES plus 0.1 mM EDTA and pH was adjusted to 7.4. Assay buffer consisted of 50 mM HEPES supplemented with 5 mM EGTA, 5 mM MgCl2, 0.005% w/v Tween 20 and pH was adjusted to 7.4. An 8% albumin stock consisted of HSA dissolved at 8% (w/v) in assay buffer. An 0.02% albumin stock consisted of HSA dissolved at 0.02% (w/v) in assay buffer.
To make a membrane preparation the cells were grown to approximately 80% confluence. The cells were washed twice in phosphate-buffered saline and harvested. The cells were pelleted using a brief centrifugation and the cell pellet was kept on ice. The cell pellet was homogenised with ULTRA-THURRAX™ dispersing instrument for 20-30 seconds in a suitable amount of buffer 1 (e.g., 10 ml). The homogenate was centrifuged for 15 minutes. The pellet was re-suspended (homogenised) in 10 ml buffer 2 and centrifuged. This step was repeated once more. The resulting pellet was re-suspended in buffer 2 and the protein concentration was determined. The membranes were aliquoted and stored at minus 80° C.
For the receptor binding assay in the presence of low HSA (0.005% (w/v)) 50 μl of the assay buffer was added to each well of an assay plate. Assay continued with step 3.
For the receptor binding assay in the presence of high HSA (2% (w/v)) 50 μl of the 8% (w/v) albumin stock was added to each well of an assay plate. Assay continued with step 3.
Cell membrane aliquots were thawed and diluted to their working concentration. Fifty μl were added to each well in the assay plate.
WGA SPA beads were suspended in assay buffer at 20 mg/ml. The suspension was diluted to 10 mg/ml in assay buffer just prior to addition to the assay plate. Fifty μl were added to each well in the assay plate.
A 25 μl aliquot was reserved for measuring total counts/well.
The assay plate was incubated for 2 h at 30° C.
The assay plate was centrifuged for 10 min.
The assay plate was read in a Packard TopCount NXT instrument.
Individual replicates were analysed using non-linear regression in GraphPad Prism. IC50 values were calculated by the software and reported in nM. A minimum of two replicates was measured for each sample. The reported values are averages of all of the measured values for each compound.

For `CC[C@H](C)[C@H](NC(=O)[C@H](Cc1ccccc1)NC(=O)[C@H](CCC(=O)O)NC(=O)[C@H](CCCNC(=N)N)NC(=O)[C@H](C)NC(=O)[C@H](C)NC(=O)[C@H](CCC(N)=O)NC(=O)[C@H](CCC(=O)O)NC(=O)[C@H](CCC(=O)O)NC(=O)[C@H](CC(C)C)NC(=O)[C@H](Cc1ccc(O)cc1)NC(=O)[C@H](CO)NC(=O)[C@H](CO)NC(=O)[C@@H](NC(=O)[C@H](CC(=O)O)NC(=O)[C@H](CO)NC(=O)[C@@H](NC(=O)[C@H](Cc1ccccc1)NC(=O)[C@@H](NC(=O)CNC(=O)[C@H](CCC(=O)O)NC(=O)C(C)(C)NC(=O)[C@@H](N)Cc1c[nH]cn1)[C@@H](C)O)[C@@H](C)O)C(C)C)C(=O)N[C@@H](C)C(=O)N[C@@H](Cc1c[nH]c2ccccc12)C(=O)N[C@@H](CC(C)C)C(=O)N[C@H](C(=O)N[C@@H](CCCNC(=N)N)C(=O)NCC(=O)N[C@@H](CCCCNC(=O)COCCOCCNC(=O)COCCOCCNC(=O)CC[C@H](NC(=O)CCCCCCCCCCOc1ccc(C(=O)O)cc1)C(=O)O)C(=O)N[C@@H](CCCCNC(=O)COCCOCCNC(=O)COCCOCCNC(=O)CC[C@H](NC(=O)CCCCCCCCCCOc1ccc(C(=O)O)cc1)C(=O)O)C(=O)O)C(C)C` [Comparative 8A], which IC50 is on record?
Its IC50 is 110 nM.

Which IC50 does the source give for `CC[C@H](C)[C@H](NC(=O)[C@H](Cc1ccccc1)NC(=O)[C@H](CCC(=O)O)NC(=O)[C@H](CCCNC(=N)N)NC(=O)[C@H](C)NC(=O)[C@H](C)NC(=O)[C@H](CCC(N)=O)NC(=O)[C@H](CCC(=O)O)NC(=O)[C@H](CCC(=O)O)NC(=O)[C@H](CC(C)C)NC(=O)[C@H](Cc1ccc(O)cc1)NC(=O)[C@H](CO)NC(=O)[C@H](CO)NC(=O)[C@@H](NC(=O)[C@H](CC(=O)O)NC(=O)[C@H](CO)NC(=O)[C@@H](NC(=O)[C@H](Cc1ccccc1)NC(=O)[C@@H](NC(=O)CNC(=O)[C@H](CCC(=O)O)NC(=O)[C@H](Cc1c[nH]c2ccccc12)NC(=O)[C@@H](N)Cc1c[nH]cn1)[C@@H](C)O)[C@@H](C)O)C(C)C)C(=O)N[C@@H](C)C(=O)N[C@@H](Cc1c[nH]c2ccccc12)C(=O)N[C@@H](CC(C)C)C(=O)N[C@H](C(=O)N[C@@H](CCCNC(=N)N)C(=O)NCC(=O)N[C@@H](CCCCNC(=O)COCCOCCNC(=O)COCCOCCNC(=O)CC[C@H](NC(=O)CCCCCCCCCOc1cccc(C(=O)O)c1)C(=O)O)C(=O)N[C@@H](CCCCNC(=O)COCCOCCNC(=O)COCCOCCNC(=O)CC[C@H](NC(=O)CCCCCCCCCOc1cccc(C(=O)O)c1)C(=O)O)C(=O)O)C(C)C` [Example 1, N{Epsilon-36}-[2-[2-[2-[[2-[2-[2-[[(4S)-4-carboxy-4-[10-(3-carboxyphenoxy)decanoylamino]butanoyl]amino]ethoxy]ethoxy]acetyl]amino]ethoxy]ethoxy]acetyl],N{Epsilon-37}-[2-[2-[2-[[2-[2-[2-[[(4S)-4-carboxy-4-[10-(3-carboxyphenoxy)decanoylamino]butanoyl]amino]ethoxy]ethoxy]acetyl]amino]ethoxy]ethoxy]acetyl]-[Trp8,Glu22,Arg26,Arg34,Lys36,Lys37]-GLP-1-(7-37)-peptide] (H-HWEGTFTSDVSSYLEEQAAREFIAWLVRGK([AEEA-AEEA-γGlu-Decanoyl(10-O(3-COOH-Ph))])K([AEEA-AEEA-γGlu-Decanoyl(10-O(3-COOH-Ph))])-OH) here?
Its IC50 is 410 nM.

Which IC50 does the source give for `CC[C@H](C)[C@H](NC(=O)[C@H](Cc1ccccc1)NC(=O)[C@H](CCC(=O)O)NC(=O)[C@H](CCCNC(=N)N)NC(=O)[C@H](C)NC(=O)[C@H](C)NC(=O)[C@H](CCC(N)=O)NC(=O)[C@H](CCC(=O)O)NC(=O)[C@H](CCC(=O)O)NC(=O)[C@H](CC(C)C)NC(=O)[C@H](Cc1ccc(O)cc1)NC(=O)[C@H](CO)NC(=O)[C@H](CO)NC(=O)[C@@H](NC(=O)[C@H](CC(=O)O)NC(=O)[C@H](CO)NC(=O)[C@@H](NC(=O)[C@H](Cc1ccccc1)NC(=O)[C@@H](NC(=O)CNC(=O)[C@H](CCC(=O)O)NC(=O)[C@H](Cc1c[nH]c2ccccc12)NC(=O)[C@@H](N)Cc1c[nH]cn1)[C@@H](C)O)[C@@H](C)O)C(C)C)C(=O)N[C@@H](C)C(=O)N[C@@H](Cc1c[nH]c2ccccc12)C(=O)N[C@@H](CC(C)C)C(=O)N[C@H](C(=O)N[C@@H](CCCNC(=N)N)C(=O)NCC(=O)N[C@@H](CCCCNC(=O)COCCOCCNC(=O)COCCOCCNC(=O)CC[C@H](NC(=O)CCCCCCCCCCOc1ccc(C(=O)O)cc1)C(=O)O)C(=O)N[C@@H](CCCCNC(=O)COCCOCCNC(=O)COCCOCCNC(=O)CC[C@H](NC(=O)CCCCCCCCCCOc1ccc(C(=O)O)cc1)C(=O)O)C(=O)O)C(C)C` [Example 8, N{Epsilon-36}-[2-[2-[2-[[2-[2-[2-[[(4S)-4-carboxy-4-[11-(4-carboxyphenoxy)undecanoylamino]butanoyl]amino]ethoxy]ethoxy]acetyl]amino]ethoxy]ethoxy]acetyl],N{Epsilon-37}-[2-[2-[2-[[2-[2-[2-[[(4S)-4-carboxy-4-[11-(4-carboxyphenoxy)undecanoylamino]butanoyl]amino]ethoxy]ethoxy]acetyl]amino]ethoxy]ethoxy]acetyl]-[Trp8,Glu22,Arg26,Arg34,Lys36,Lys37]-GLP-1-(7-37)-peptide] (H-HWEGTFTSDVSSYLEEQAAREFIAWLVRGK([AEEA-AEEA-γGlu-Undecanoyl(11-OPh(4-COOH))])K([AEEA-AEEA-γGlu-Undecanoyl(11-OPh(4-COOH))])-OH; N-terminus and C-terminus assumed) here?
Its IC50 is 170 nM.

same assay, conditions: GLP-1 receptor binding Low HSA IC50 (nM), low HSA (max. 0.001% (w/v) final assay concentration)

With `CC[C@H](C)[C@H](NC(=O)[C@H](Cc1ccccc1)NC(=O)[C@H](CCC(=O)O)NC(=O)[C@H](CCCNC(=N)N)NC(=O)[C@H](C)NC(=O)[C@H](C)NC(=O)[C@H](CCC(N)=O)NC(=O)[C@H](CCC(=O)O)NC(=O)[C@H](CCC(=O)O)NC(=O)[C@H](CC(C)C)NC(=O)[C@H](Cc1ccc(O)cc1)NC(=O)[C@H](CO)NC(=O)[C@H](CO)NC(=O)[C@@H](NC(=O)[C@H](CC(=O)O)NC(=O)[C@H](CO)NC(=O)[C@@H](NC(=O)[C@H](Cc1ccccc1)NC(=O)[C@@H](NC(=O)CNC(=O)[C@H](CCC(=O)O)NC(=O)C(C)(C)NC(=O)[C@@H](N)Cc1c[nH]cn1)[C@@H](C)O)[C@@H](C)O)C(C)C)C(=O)N[C@@H](C)C(=O)N[C@@H](Cc1c[nH]c2ccccc12)C(=O)N[C@@H](CC(C)C)C(=O)N[C@H](C(=O)N[C@@H](CCCNC(=N)N)C(=O)NCC(=O)N[C@@H](CCCCNC(=O)COCCOCCNC(=O)COCCOCCNC(=O)CC[C@H](NC(=O)CCCCCCCCCCOc1ccc(C(=O)O)cc1)C(=O)O)C(=O)N[C@@H](CCCCNC(=O)COCCOCCNC(=O)COCCOCCNC(=O)CC[C@H](NC(=O)CCCCCCCCCCOc1ccc(C(=O)O)cc1)C(=O)O)C(=O)O)C(C)C` [Comparative 8A] as the compound, how does the IC50 read?
The IC50 was 0.245 nM.

For `CC[C@H](C)[C@H](NC(=O)[C@H](Cc1ccccc1)NC(=O)[C@H](CCC(=O)O)NC(=O)[C@H](CCCNC(=N)N)NC(=O)[C@H](C)NC(=O)[C@H](C)NC(=O)[C@H](CCC(N)=O)NC(=O)[C@H](CCC(=O)O)NC(=O)[C@H](CCC(=O)O)NC(=O)[C@H](CC(C)C)NC(=O)[C@H](Cc1ccc(O)cc1)NC(=O)[C@H](CO)NC(=O)[C@H](CO)NC(=O)[C@@H](NC(=O)[C@H](CC(=O)O)NC(=O)[C@H](CO)NC(=O)[C@@H](NC(=O)[C@H](Cc1ccccc1)NC(=O)[C@@H](NC(=O)CNC(=O)[C@H](CCC(=O)O)NC(=O)[C@H](Cc1c[nH]c2ccccc12)NC(=O)[C@@H](N)Cc1c[nH]cn1)[C@@H](C)O)[C@@H](C)O)C(C)C)C(=O)N[C@@H](C)C(=O)N[C@@H](Cc1c[nH]c2ccccc12)C(=O)N[C@@H](CC(C)C)C(=O)N[C@H](C(=O)N[C@@H](CCCNC(=N)N)C(=O)NCC(=O)N[C@@H](CCCNC(=N)N)C(=O)N[C@@H](CCCCNC(=O)COCCOCCNC(=O)COCCOCCNC(=O)[C@H](CCCCNC(=O)COCCOCCNC(=O)COCCOCCNC(=O)COCCOCCNC(=O)COCCOCCNC(=O)CC[C@H](NC(=O)[C@H]1CC[C@H](CNC(=O)CCCCCCCCCCCCCCCCCCC(=O)O)CC1)C(=O)O)NC(=O)COCCOCCNC(=O)COCCOCCNC(=O)COCCOCCNC(=O)COCCOCCNC(=O)CC[C@H](NC(=O)[C@H]1CC[C@H](CNC(=O)CCCCCCCCCCCCCCCCCCC(=O)O)CC1)C(=O)O)C(=O)O)C(C)C` [Example 12], which IC50 is on record?
The IC50 was 3.16 nM.

`CC[C@H](C)[C@H](NC(=O)[C@H](Cc1ccccc1)NC(=O)[C@H](CCC(=O)O)NC(=O)[C@H](CCCNC(=N)N)NC(=O)[C@H](C)NC(=O)[C@H](C)NC(=O)[C@H](CCC(N)=O)NC(=O)[C@H](CCC(=O)O)NC(=O)[C@H](CCC(=O)O)NC(=O)[C@H](CC(C)C)NC(=O)[C@H](Cc1ccc(O)cc1)NC(=O)[C@H](CO)NC(=O)[C@H](CO)NC(=O)[C@@H](NC(=O)[C@H](CC(=O)O)NC(=O)[C@H](CO)NC(=O)[C@@H](NC(=O)[C@H](Cc1ccccc1)NC(=O)[C@@H](NC(=O)CNC(=O)[C@H](CCC(=O)O)NC(=O)[C@H](Cc1c[nH]c2ccccc12)NC(=O)[C@@H](N)Cc1c[nH]cn1)[C@@H](C)O)[C@@H](C)O)C(C)C)C(=O)N[C@@H](C)C(=O)N[C@@H](Cc1c[nH]c2ccccc12)C(=O)N[C@@H](CC(C)C)C(=O)N[C@H](C(=O)N[C@@H](CCCNC(=N)N)C(=O)NCC(=O)N[C@@H](CCCNC(=N)N)C(=O)N[C@@H](CCCCNC(=O)COCCOCCNC(=O)COCCOCCNC(=O)CN(CCCNC(=O)COCCOCCNC(=O)COCCOCCNC(=O)COCCOCCNC(=O)COCCOCCNC(=O)CC[C@H](NC(=O)[C@H]1CC[C@H](CNC(=O)CCCCCCCCCCCCCCCCCCC(=O)O)CC1)C(=O)O)CCCNC(=O)COCCOCCNC(=O)COCCOCCNC(=O)COCCOCCNC(=O)COCCOCCNC(=O)CC[C@H](NC(=O)[C@H]1CC[C@H](CNC(=O)CCCCCCCCCCCCCCCCCCC(=O)O)CC1)C(=O)O)C(=O)O)C(C)C` [Example 13] was tested. Which IC50 did it give?
Its IC50 is 0.818 nM.
